In patent publication US20050148671A1, “(2S)-amino(phenyl)acetic acid and derivatives as alpha2delta voltage-gated calcium channel ligands” (priority 2004, published 2005):

Tested on: mechanical allodynia in spinal nerve ligated rats
Assay: Determination of analgesic effect: mechanical allodynia (von Frey) after L5/L6 spinal nerve ligation
Settings: oral, in PEG400, 60 minutes before von Frey testing; percentage of maximal protective effect relative to vehicle; male Sprague Dawley rats
Source text: Male Sprague Dawley rats (80-100 g) were purchased from Charles River (Portage, Mich.). Prior to surgery, animals were group-housed and maintained in a temperature regulated environment (lights on between 7:00 a.m. and 8:00 p.m.). Following nerve ligation surgery, animals were group housed. Two weeks after surgery, experimentation began. Rats had access to food and water ad libitum.
Briefly, an incision was made on the dorsal portion of the hip and the muscle was blunt dissected to reveal the spinal processes. The L6 transverse process was removed, and the left L5 and L6 spinal nerves were tightly ligated with a 5.0 braided silk suture. The wound was cleaned, the membrane sewn with a 4.0 dissolvable Vicryl suture and the skin closed with wound clips.
For the assessment of neuropathic pain, mechanical allodynia in the affected paw of animals that had undergone spinal nerve ligation was evaluated using von Frey filaments. […] Using the Dixons Up-Down method, a baseline level of allodynia was determined to have a withdrawal threshold of 3 g of pressure.
Rats were placed in groups labeled A-D with six rats per group. Group A was administered 1.0 mL/kg of vehicle (100% PEG400). […] Data are expressed as the percentage of maximal protective effect relative to the control (vehicle treated) animals.

Compound | EC50 [µmol/kg]
NCC1(CC(=O)O)CCCCC1 [Gabapentin] | 160
N[C@H](C(=O)O)c1ccccc1 [(2S)-amino(phenyl)acetic acid] | 50
